Assay results taken from patent US20210283107A1, “Methods to Expand the Spectrum of Gram-Positive Antibiotics” (NORTH CAROLINA STATE UNIVERSITY, priority 2016, published 2021).
Values after ≈ are worked out from the molar mass of the structure shown.

How the values were obtained:
[1] = test system: A. baumannii strain 4025; test: Potentiation of clarithromycin and vancomycin against clinical isolate; format: cell-based, Acinetobacter baumannii; conditions: antibiotic alone
Protocol: (§1) As previously stated, A. baumannii 5075 was chosen for these studies due to its virulence and multidrug resistance, but to further analyze the activity of our lead compounds, 23 A. baumannii clinical isolates obtained from Walter Reed Army Institute of Research (WRAIR) were tested.
(§2) Day Cultures (6 h) were subcultured to 5×10^5 CFU/mL in cation adjusted Mueller-Hinton broth (CAMHB). […] One milliliter of the resulting solution was aliquoted into a separate culture tube and was dosed with antibiotic so that the resulting concentration was the highest desirable concentration to be tested. Bacteria treated with antibiotic alone were used as a control. Row one of a 96-well plate was filled with 200 μL of the antibiotic/compound solution, and the remaining rows were filled with 100 μL of the remaining 4 mL bacterial subculture. The wells in row one were mixed five times before 100 μL was transferred to the following row (row two). Row two was then mixed five times, and 100 μL was transferred to row three. This process was repeated until the second to last row had been reached. The last row is left unexposed to antibiotic in order to serve as a negative control. The antibiotic only treated bacteria was plated by aliquoting 200 μL of the treated bacteria into row one and filling the remaining rows with untreated bacteria from the original bacteria subculture. The rows were mixed in the same way as described above. Plates were covered with Glad Press n'Seal and were incubated under stationary conditions at 37° C. for 16 hours. MIC values were recorded as the lowest concentration at which no bacterial growth was observed. Fold reductions were determined by comparison of the compound treated wells with the antibiotic only treated control wells.

[2] = test system: A. baumannii strain 5197; test: as above; format: cell-based, Acinetobacter baumannii; conditions: antibiotic alone
Protocol: as §1, §2

[3] = test system: A. baumannii strain 3806; test: as above; format: cell-based, Acinetobacter baumannii; conditions: antibiotic alone
Protocol: as §1, §2

[4] = test system: A. baumannii strain 4026; test: as above; format: cell-based, Acinetobacter baumannii; conditions: antibiotic alone
Protocol: as §1, §2

[5] = test system: A. baumannii strain 4027; test: as above; format: cell-based, Acinetobacter baumannii; conditions: antibiotic alone
Protocol: as §1, §2

[6] = test system: A. baumannii strain 8967; test: as above; format: cell-based, Acinetobacter baumannii; conditions: antibiotic alone
Protocol: as §1, §2

[7] = test system: A. baumannii strain 4857; test: as above; format: cell-based, Acinetobacter baumannii; conditions: antibiotic alone
Protocol: as §1, §2

[8] = test system: A. baumannii strain 5711; test: as above; format: cell-based, Acinetobacter baumannii; conditions: antibiotic alone
Protocol: as §1, §2

[9] = test system: A. baumannii strain 3785; test: as above; format: cell-based, Acinetobacter baumannii; conditions: antibiotic alone
Protocol: as §1, §2

[10] = test system: A. baumannii strain 4498; test: as above; format: cell-based, Acinetobacter baumannii; conditions: antibiotic alone
Protocol: as §1, §2

[11] = test system: A. baumannii mutant AB1310; test: MIC against Tn-seq transposon mutant AB1310; format: cell-based; conditions: Acinetobacter baumannii
Protocol: (§3) During individual MIC screening, two mutants, AB522 and AB1310, were identified due to their increased sensitivity to the three macrolide antibiotics and vancomycin when compared to AB 5075 (Table 17).
(§4) Day Cultures (6 h) were subcultured to 5×10^5 CFU/mL in cation adjusted Mueller-Hinton broth (CAMHB). Aliquots (1 mL) were placed in culture tubes, and compound was added from 100 mM stock solutions, such that the compound concentration equaled the highest concentration tested (200 μM or 64 μg/mL). Samples were then aliquoted (200 μL) into the first row of wells of a 96-well plate, with all remaining wells being filled with 100 μL of initial bacterial subculture. The wells in row one were mixed five times before 100 μL was transferred to the following row (row two). Row two was then mixed five times, and 100 μL was transferred to row three. This processed was repeated until the final row had been mixed. This process provided a serial dilution of the compound. Plates were covered with Glad Press n'Seal and were incubated under stationary conditions at 37° C. for 16 hours. MIC values were recorded as the lowest concentration at which no bacterial growth was observed.

[12] = test system: AB5075; test: G. mellonella model infected with AB5075, survival; format: in vivo, Galleria mellonella
Protocol: Galleria mellonella larvae (Speedy Worm, Alexandria, Minn.) were used within ten days of shipment from the vendor. After reception of worms, larvae were kept in the dark at room temperature for at least 24 h before infection. Larvae weighing between 200 to 300 mg were used in the survival assay. Using a 10 μL glass syringe (Hamilton, Reno, Nev.) fitted with a 30 G needle (Exel International, St. Petersburg, Fl), 5 μL of the desired compound and concentration were injected into the last left proleg. After 2.5 h, a second 5 μL injection containing 6×10^5 CFU of Acinetobacter baumannii 5075 was injected into the second to last left proleg. Injected worms were left at room temperature in the dark while being assessed at 24 h intervals over 6 days. […] Experiment was repeated 7 times using 10 larvae per experimental group.

[13] = test system: A. baumannii mutant AB522; test: MIC against Tn-seq transposon mutant AB522; format: cell-based; conditions: Acinetobacter baumannii
Protocol: as §3, §4

[14] = test system: A. baumannii strain 4269; test: Potentiation of clarithromycin and vancomycin against clinical isolate; format: cell-based, Acinetobacter baumannii; conditions: antibiotic alone
Protocol: as §1, §2

[15] = test system: A. baumannii strain 3560; test: as above; format: cell-based, Acinetobacter baumannii; conditions: antibiotic alone
Protocol: as §1, §2

[16] = test system: A. baumannii strain 4991; test: as above; format: cell-based, Acinetobacter baumannii; conditions: antibiotic alone
Protocol: as §1, §2

[17] = test system: A. baumannii strain 4795; test: as above; format: cell-based, Acinetobacter baumannii; conditions: antibiotic alone
Protocol: as §1, §2

[18] = test system: A. baumannii strain 5256; test: as above; format: cell-based, Acinetobacter baumannii; conditions: antibiotic alone
Protocol: as §1, §2

[19] = test system: A. baumannii strain 5001; test: as above; format: cell-based, Acinetobacter baumannii; conditions: antibiotic alone
Protocol: as §1, §2

[20] = test system: A. baumannii strain 4052; test: as above; format: cell-based, Acinetobacter baumannii; conditions: antibiotic alone
Protocol: as §1, §2

[21] = test system: A. baumannii strain 4957; test: as above; format: cell-based, Acinetobacter baumannii; conditions: antibiotic alone
Protocol: as §1, §2

[22] = test system: A. baumannii strain 4878; test: as above; format: cell-based, Acinetobacter baumannii; conditions: antibiotic alone
Protocol: as §1, §2

[23] = test system: A. baumannii strain 4456; test: as above; format: cell-based, Acinetobacter baumannii; conditions: antibiotic alone
Protocol: as §1, §2

[24] = test system: A. baumannii strain 3927; test: as above; format: cell-based, Acinetobacter baumannii; conditions: antibiotic alone
Protocol: as §1, §2

[25] = test system: A. baumannii strain 4490; test: as above; format: cell-based, Acinetobacter baumannii; conditions: antibiotic alone
Protocol: as §1, §2

[26] = test system: A. baumannii strain 4448; test: as above; format: cell-based, Acinetobacter baumannii; conditions: antibiotic alone
Protocol: as §1, §2

[27] = test system: A. baumannii strain 5075 (AB5075); test: Macrolide sensitization / antibiotic resensitization: antibiotic MIC in presence of compound (broth microdilution); format: cell-based, Acinetobacter baumannii; conditions: Acinetobacter baumannii, read-out: MIC (μg/mL) of the antibiotic
Protocol: A. baumannii 5075 was plated on LB agar, then grown in CAMHB for 6-8 h and this culture was used to inoculate fresh CAMHB (5×10^5 CFU/mL). The resulting suspension was aliquoted (5 mL) into culture tubes and compound, from 100 mM DMSO stock, was added. One aliquot was not treated (control). 1 mL of each sample was transferred to a new culture tube and antibiotic was added. Rows 2-12 of a 96-well microtiter plate were filled with 100 μL/well from the remaining 4 mL bacterial subcultures, allowing the concentration of compound to be kept uniform throughout the antibiotic dilution procedure. Samples containing antibiotic were aliquoted (200 μL) into the corresponding first row wells of the microtiter plate. Row 1 wells were mixed 6 to 8 times then 100 μL was withdrawn and transferred to row 2. Row 2 wells were mixed 6 to 8 times, followed by a 100 μL transfer from row 2 to row 3. This procedure was repeated to serially dilute the rest of the rows of the microtiter plate, with the exception of the final row, to which no antibiotic was added (to check for growth of bacteria in the presence of compound alone). The microtiter plate was then covered, placed in a covered damp plastic container and incubated under stationary conditions at 37° C. After 16-18 hrs minimum inhibitory concentration (MIC) values were recorded as the lowest concentration of antibiotic at which there was no visible growth of bacteria. Experiments were carried out in duplicate each time and repeated at least twice.
The difference in antibiotic MIC between the control (no compound) sample, and the samples containing each compound was recorded as the fold-reduction.
as §2

| SMILES | MIC (μg/mL) of the antibiotic [1] [µg/mL] | MIC (μg/mL) of the antibiotic [2] [µg/mL] | MIC (μg/mL) of the antibiotic [3] [µg/mL] | MIC (μg/mL) of the antibiotic [4] [µg/mL] | MIC (μg/mL) of the antibiotic [5] [µg/mL] | MIC (μg/mL) of the antibiotic [6] [µg/mL] | MIC (μg/mL) of the antibiotic [8] [µg/mL] | MIC (μg/mL) of the antibiotic [9] [µg/mL] | MIC (μg/mL) of the antibiotic [10] [µg/mL] | MIC [11] [µg/mL] | MIC [13] [µg/mL] | other results |
| --- | --- | --- | --- | --- | --- | --- | --- | --- | --- | --- | --- | --- |
| CC[C@H]1OC(=O)[C@H](C)[C@@H](O[C@H]2C[C@@](C)(OC)[C@@H](O)[C@H](C)O2)[C@H](C)[C@@H](O[C@@H]2O[C@H](C)C[C@H](N(C)C)[C@H]2O)[C@](C)(OC)C[C@@H](C)C(=O)[C@H](C)[C@@H](O)[C@]1(C)O [Clarithromycin, reference compound] | 64 | 64 | 16 | 64 | 64 | 16 | 64 | 64 | 64 | 2 (≈ 2.67 µM) | 2 (≈ 2.67 µM) | MIC (μg/mL) of the antibiotic [7]: 64 µg/mL; survival after 6 days ([12]; clarithromycin alone at 25 mg/kg): 1% |
| CN[C@H](CC(C)C)C(=O)N[C@H]1C(=O)N[C@@H](CC(N)=O)C(=O)N[C@H]2C(=O)N[C@H]3C(=O)N[C@H](C(=O)N[C@H](C(=O)O)c4cc(O)cc(O)c4-c4cc3ccc4O)[C@H](O)c3ccc(c(Cl)c3)Oc3cc2cc(c3O[C@@H]2O[C@H](CO)[C@@H](O)[C@H](O)[C@H]2O[C@H]2C[C@](C)(N)[C@H](O)[C@H](C)O2)Oc2ccc(cc2Cl)[C@H]1O [Vancomycin, reference compound] | 512 | 512 | 256 | 512 | 512 | 512 | >512 | 512 | 512 | 64 (≈ 44.2 µM) | 64 (≈ 44.2 µM) | MIC (μg/mL) of the antibiotic [14]: 512 µg/mL; MIC (μg/mL) of the antibiotic [15]: 256 µg/mL; MIC (μg/mL) of the antibiotic [16]: 512 µg/mL; MIC (μg/mL) of the antibiotic [17]: >512 µg/mL; MIC (μg/mL) of the antibiotic [18]: 512 µg/mL; MIC (μg/mL) of the antibiotic [19]: 512 µg/mL; MIC (μg/mL) of the antibiotic [20]: >512 µg/mL; MIC (μg/mL) of the antibiotic [21]: 512 µg/mL; MIC (μg/mL) of the antibiotic [22]: 512 µg/mL; MIC (μg/mL) of the antibiotic [23]: 512 µg/mL; MIC (μg/mL) of the antibiotic [24]: 256 µg/mL; MIC (μg/mL) of the antibiotic [25]: 256 µg/mL; MIC (μg/mL) of the antibiotic [26]: 512 µg/mL; MIC [27]: 256 µg/mL |
| CO[C@H]1/C=C/O[C@@]2(C)Oc3c(C)c(O)c4c(O)c(c(/C=N/N5CCN(C)CC5)c(O)c4c3C2=O)NC(=O)/C(C)=C\C=C\[C@H](C)[C@H](O)[C@@H](C)[C@@H](O)[C@@H](C)[C@H](OC(C)=O)[C@@H]1C [rifampin, reference compound] |  |  |  |  |  |  |  |  |  |  |  | survival after 6 days ([12]; rifampin at 30 mg/kg, one injection): 64% |
